The source of these data is PubChem BioAssay AID330 (DTP/NCI, 2004).

The structures appear in SMILES notation. “And” between values parts separate entries of the source, which are not always exact repeats. Equal values may be shown once. Toxic doses and inconclusive results are not listed.

The test relates to P388 leukemia ip, CD2F1 mice, survival T/C. Put plainly: NCI In Vivo Anticancer Drug Screen. Data for tumor model P388 Leukemia (intraperitoneal) in CD2F1 (CDF1) mice. The note with it: endpoint: median survival time, higher = longer survival. In a few lines:
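Mice carrying the transplanted tumor received test compound or vehicle. Survival was recorded in each group, and the value is the treated-group measurement divided by that of the vehicle-treated control group.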

[1] abbreviates: dose: 100.0 mg/kg/injection, schedule: Q01DX009 (ip), vehicle: saline with Tween-80.
Where [2] appears, read: dose: 200.0 mg/kg/injection, schedule: Q01DX009 (ip), vehicle: saline with Tween-80.
Setting [3] is: dose: 50.0 mg/kg/injection, schedule: Q01DX005 (ip), vehicle: saline with Tween-80.
The mark [4] stands for this setting: dose: 25.0 mg/kg/injection, schedule: Q01DX009 (ip), vehicle: saline with Tween-80.
The mark [5] stands for this setting: dose: 50.0 mg/kg/injection, schedule: Q01DX009 (ip), vehicle: saline with Tween-80.
[6] abbreviates: dose: 100.0 mg/kg/injection, schedule: Q04DX003 (ip), vehicle: Klucel (hydroxypropylcellulose) (HPC).
[7] abbreviates: dose: 60.0 mg/kg/injection, schedule: Q01DX005 (ip), vehicle: Klucel (hydroxypropylcellulose) (HPC).
Setting [8] is: dose: 120.0 mg/kg/injection, schedule: Q01DX005 (ip), vehicle: Klucel (hydroxypropylcellulose) (HPC).
The mark [9] stands for this setting: dose: 240.0 mg/kg/injection, schedule: Q01DX005 (ip), vehicle: Klucel (hydroxypropylcellulose) (HPC).
The mark [10] stands for this setting: dose: 50.0 mg/kg/injection, schedule: Q01DX005 (ip), vehicle: Klucel (hydroxypropylcellulose) (HPC).

With `CCOC(=O)CCC(NC(=O)c1ccc(NCc2cnc3nc(N)nc(N)c3c2)cc1)C(=O)OCC` (stereo unspecified), the T/C (dose: 0.25 mg/kg/injection, schedule: Q01DX005 (ip), vehicle: saline with Tween-80) was 162 % of control; the T/C (dose: 0.5 mg/kg/injection, schedule: Q01DX005 (ip), vehicle: saline with Tween-80) is 158 % of control and 183 % of control; the T/C (dose: 1.0 mg/kg/injection, schedule: Q01DX005 (ip), vehicle: saline with Tween-80) is 183 % of control and 218 % of control; the T/C (dose: 2.0 mg/kg/injection, schedule: Q01DX005 (ip), vehicle: saline with Tween-80) is 104 % of control; the T/C (dose: 125.0 micrograms/kg/injection, schedule: Q01DX005 (ip), vehicle: saline with Tween-80) was 114 % of control; the T/C (dose: 1000.0 micrograms/kg/injection, schedule: Q01DX005 (ip), vehicle: saline with Tween-80) is 151 % of control.

In the case of `CC1=CC(C)(C)NC(=S)N1c1cccc(Cl)c1`, the T/C was 107 % of control and 118 % of control (dose: 3.12 mg/kg/injection, schedule: Q01DX009 (ip), vehicle: saline with Tween-80); 111 % of control and 114 % of control (dose: 6.25 mg/kg/injection, schedule: Q01DX009 (ip), vehicle: saline with Tween-80); 101 % of control and 118 % of control (dose: 12.5 mg/kg/injection, schedule: Q01DX009 (ip), vehicle: saline with Tween-80); 93 % of control under setting [1]; 90 % of control under setting [2]; 90 % of control (dose: 400.0 mg/kg/injection, schedule: Q01DX009 (ip), vehicle: saline with Tween-80).

As to `CN(CCC1(C)C(=O)CCc2ccccc21)Cc1ccccc1` (stereo unspecified), the T/C (dose: 12.5 mg/kg/injection, schedule: Q01DX005 (ip), vehicle: saline with Tween-80) is 102 % of control; the T/C (dose: 25.0 mg/kg/injection, schedule: Q01DX005 (ip), vehicle: saline with Tween-80) is 96 % of control; the T/C under setting [3] was 100 % of control and 96 % of control.

On to `O=c1cc(Br)[nH]c(=O)o1`, for which the T/C is, setting by setting: under setting [4], 91 % of control; under setting [5], 97 % of control; under setting [1], 92 % of control.

In the case of `O=C1c2ccccc2C(=O)N1C1CC(=O)n2c1nc1ccccc12` (stereo unspecified), the T/C by setting is: (dose: 60.0 mg/kg/injection, schedule: Q01DX005 (ip), vehicle: saline with Tween-80) 101 % of control; (dose: 120.0 mg/kg/injection, schedule: Q01DX005 (ip), vehicle: saline with Tween-80) 95 % of control; (dose: 240.0 mg/kg/injection, schedule: Q01DX005 (ip), vehicle: saline with Tween-80) 95 % of control.

In the case of `CC1[C@@]2(CCC(C)(C)O2)O[C@@H]2C=C3C4CCC5Cc6nc7c(nc6C[C@@]5(C)C4C[C@H](O)[C@@]3(C)[C@]12O)CC1CCC2C3=C[C@H]4O[C@@]5(O[C@@](C)(CO)C[C@@H]5O)C(C)[C@@]4(O)[C@]3(C)[C@@H](O)CC2[C@]1(C)C7` (stereo partly specified), the T/C is, setting by setting: (dose: 12.5 micrograms/kg/injection, schedule: Q01DX009 (ip), vehicle: saline + alcohol) 109 % of control; (dose: 25.0 micrograms/kg/injection, schedule: Q01DX009 (ip), vehicle: saline + alcohol) 98 % of control; (dose: 50.0 micrograms/kg/injection, schedule: Q01DX009 (ip), vehicle: saline + alcohol) 107 % of control; (dose: 100.0 micrograms/kg/injection, schedule: Q01DX009 (ip), vehicle: saline + alcohol) 107 % of control.

For the molecule `O=C(CCl)Nc1ccc2c(c1)C(=O)c1cccn1-2`, the T/C was 97 % of control (dose: 25.0 mg/kg/injection, schedule: Q01DX001 (ip), vehicle: Klucel (hydroxypropylcellulose) (HPC)); 92 % of control (dose: 25.0 mg/kg/injection, schedule: Q04DX003 (ip), vehicle: Klucel (hydroxypropylcellulose) (HPC)); 97 % of control (dose: 50.0 mg/kg/injection, schedule: Q01DX001 (ip), vehicle: Klucel (hydroxypropylcellulose) (HPC)); 97 % of control (dose: 50.0 mg/kg/injection, schedule: Q04DX003 (ip), vehicle: Klucel (hydroxypropylcellulose) (HPC)); 96 % of control (dose: 100.0 mg/kg/injection, schedule: Q01DX001 (ip), vehicle: Klucel (hydroxypropylcellulose) (HPC)); 107 % of control under setting [6].

Turning to `CSc1ncc(C#N)c2nc(-c3ccccc3)nn12`, the T/C is, setting by setting: under setting [3], 97 % of control; (dose: 100.0 mg/kg/injection, schedule: Q01DX005 (ip), vehicle: saline with Tween-80) 94 % of control; (dose: 200.0 mg/kg/injection, schedule: Q01DX005 (ip), vehicle: saline with Tween-80) 88 % of control.

On to `O=c1ccc2cc3ccoc3c(OCCCCCCBr)c2o1`, for which the T/C reads like this: (dose: 100.0 mg/kg/injection, schedule: Q04DX002 (ip), vehicle: Klucel (hydroxypropylcellulose) (HPC)) 91 % of control; (dose: 200.0 mg/kg/injection, schedule: Q04DX002 (ip), vehicle: Klucel (hydroxypropylcellulose) (HPC)) 99 % of control; (dose: 400.0 mg/kg/injection, schedule: Q04DX002 (ip), vehicle: Klucel (hydroxypropylcellulose) (HPC)) 98 % of control.

`Nc1ccc(C2NC(=O)Cc3ccccc32)cc1` (stereo unspecified): the T/C is, setting by setting: (dose: 50.0 mg/kg/injection, schedule: Q01DX009 (ip), vehicle: saline) 92 % of control; (dose: 100.0 mg/kg/injection, schedule: Q01DX009 (ip), vehicle: saline) 90 % of control; (dose: 200.0 mg/kg/injection, schedule: Q01DX009 (ip), vehicle: saline) 86 % of control.

Turning to `C=C1C2CCC3(C)C(c4ccoc4)OC(=O)CC13OC1CC(=O)C(C)(C)C(CC(=O)OC)C12C` (stereo unspecified), the T/C was 99 % of control under setting [4], 99 % of control under setting [5], 99 % of control under setting [1] and 98 % of control under setting [2].

As to `COC1=C(N)C(=O)c2cccnc2C1=O`, the T/C (dose: 3.13 mg/kg/injection, schedule: Q01DX009 (ip), vehicle: DMSO) was 92 % of control; the T/C (dose: 6.25 mg/kg/injection, schedule: Q01DX009 (ip), vehicle: DMSO) was 92 % of control; the T/C (dose: 12.5 mg/kg/injection, schedule: Q01DX009 (ip), vehicle: DMSO) was 100 % of control; the T/C (dose: 25.0 mg/kg/injection, schedule: Q01DX009 (ip), vehicle: DMSO) was 109 % of control.

On to `CC(Cc1ccccc1)NN1CCOC(c2ccccc2)C1C` (stereo unspecified), for which the T/C runs as follows: (dose: 100.0 mg/kg/injection, schedule: Q04DX002 (ip), vehicle: saline) 102 % of control; (dose: 200.0 mg/kg/injection, schedule: Q04DX002 (ip), vehicle: saline) 107 % of control; (dose: 400.0 mg/kg/injection, schedule: Q04DX002 (ip), vehicle: saline) 101 % of control.

As for `C=C(CCS(=O)c1ccccc1)CC(CC(=C)COC(C)=O)S(=O)(=O)c1ccccc1` (stereo unspecified), the T/C under setting [7] is 99 % of control, the T/C under setting [8] is 99 % of control and the T/C under setting [9] was 98 % of control.

In the case of `CN1CCCCC1Cc1ccccc1` (stereo unspecified), the T/C (dose: 6.25 mg/kg/injection, schedule: Q01DX005 (ip), vehicle: saline) is 103 % of control; the T/C (dose: 12.5 mg/kg/injection, schedule: Q01DX005 (ip), vehicle: saline) was 102 % of control; the T/C (dose: 25.0 mg/kg/injection, schedule: Q01DX005 (ip), vehicle: saline) is 100 % of control.

`CC(=O)Oc1cccc2c1C(=O)C1CC=CC(OC(C)=O)C1C2=O` (stereo unspecified): the T/C is 100 % of control under setting [7], 100 % of control under setting [8] and 100 % of control under setting [9].

Turning to `O=C(CCl)SCc1ccccc1`, the T/C (dose: 100.0 mg/kg/injection, schedule: Q04DX003 (ip), vehicle: saline with Tween-80) was 107 % of control and the T/C (dose: 200.0 mg/kg/injection, schedule: Q04DX003 (ip), vehicle: saline with Tween-80) is 99 % of control.

`CC1(C)CC(=O)C2=C(C1)CC1(C)CC(C)(C)CC2(OC(=O)Cc2ccccc2)C1` (stereo unspecified): the T/C is, setting by setting: under setting [10], 98 % of control; (dose: 100.0 mg/kg/injection, schedule: Q01DX005 (ip), vehicle: Klucel (hydroxypropylcellulose) (HPC)) 95 % of control; (dose: 200.0 mg/kg/injection, schedule: Q01DX005 (ip), vehicle: Klucel (hydroxypropylcellulose) (HPC)) 92 % of control.

On to `O=C1NN2CCCN=C2c2ccncc21`, for which the T/C (dose: 60.0 mg/kg/injection, schedule: Q01DX005 (ip), vehicle: saline) is 98 % of control; the T/C (dose: 120.0 mg/kg/injection, schedule: Q01DX005 (ip), vehicle: saline) is 97 % of control; the T/C (dose: 240.0 mg/kg/injection, schedule: Q01DX005 (ip), vehicle: saline) was 93 % of control.

In the case of `Cc1cc(Cl)ccc1-n1nc(C)c2c(N)nc(N)nc21`, the T/C runs as follows: under setting [6], 109 % of control; (dose: 200.0 mg/kg/injection, schedule: Q04DX003 (ip), vehicle: Klucel (hydroxypropylcellulose) (HPC)) 102 % of control.

For the molecule `C=CCNCCC1CCCCCC1`, the T/C under setting [10] is 102 % of control.
